Laboratory results reported in publication PMC3096782 (Journal of medicinal chemistry, 2011).
“Also recorded” adds a separate entry of the source.

Columns and labels:
human NK1 receptor = human NK1 receptor (Homo sapiens, UniProt P25103); type: cell-based; settings: shift of the dose-response curve of SP, aequorin luminescence, CHO-NK1 cells
[1] = acute pain models; chronic trials; cited from earlier work
[2] = cited from earlier work

Sequence of human NK1 receptor (P25103 whole entry): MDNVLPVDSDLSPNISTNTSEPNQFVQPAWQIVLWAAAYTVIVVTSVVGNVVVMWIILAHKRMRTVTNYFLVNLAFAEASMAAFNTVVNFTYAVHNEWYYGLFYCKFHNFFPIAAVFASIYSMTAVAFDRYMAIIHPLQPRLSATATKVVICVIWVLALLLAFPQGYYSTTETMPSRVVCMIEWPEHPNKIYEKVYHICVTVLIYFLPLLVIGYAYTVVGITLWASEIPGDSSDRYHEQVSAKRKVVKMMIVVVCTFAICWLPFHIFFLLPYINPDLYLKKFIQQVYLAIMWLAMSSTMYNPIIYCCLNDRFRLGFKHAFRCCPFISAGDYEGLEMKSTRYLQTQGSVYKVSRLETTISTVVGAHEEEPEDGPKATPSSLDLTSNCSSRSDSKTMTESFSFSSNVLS

Molecule	NK1R antagonism (in words) (human NK1 receptor)	Antinociception and opioid-induced tolerance (in words) [1]	Attenuation of neuropathic pain (in words) [2]
CC(=O)N1Cc2[nH]c3ccccc3c2C[C@H]1C(=O)N(C)Cc1cc(C(F)(F)F)cc(C(F)(F)F)c1 [32a]	did not show any antagonist properties		
CC(=O)N[C@H]1Cc2ccccc2CN(CC(=O)N(C)Cc2cc(C(F)(F)F)cc(C(F)(F)F)c2)C1=O [compound 20, Ac-(S)-Aba-Gly-NMe-3′,5′-(CF3)2-Bn]	able to counteract the effect of SP and good		
CC(=O)N[C@H]1Cc2c([nH]c3ccccc23)CN(CC(=O)N(C)Cc2cc(C(F)(F)F)cc(C(F)(F)F)c2)C1=O [28a]	did not show any antagonist properties		
CC(=O)N1Cc2ccccc2C[C@H]1C(=O)NCc1cc(C(F)(F)F)cc(C(F)(F)F)c1 [compound 22]	lack of antagonism		
CC(=O)N1Cc2ccccc2C[C@H]1C(=O)N(C)Cc1cc(C(F)(F)F)cc(C(F)(F)F)c1 [compound 23, Ac-Tic-NMe-3′,5′-(CF3)2-Bn]	able to counteract the effect of SP and good		
CC(=O)N[C@H]1Cc2c([nH]c3ccccc23)CN(Cc2cc(C(F)(F)F)cc(C(F)(F)F)c2)C1=O [compound 30]	did not show any antagonist properties		
H-Tyr-D-Ala-Gly-Phe-Met-Pro-Leu-Trp-NH-3′,5′-Bn(CF3)2 [compound 6]		enhanced antinociception in acute pain models and prevention of opioid-induced tolerance in chronic trials	potently attenuate neuropathic pain without producing opioid-induced tolerance
H-Tyr-D-Ala-Gly-Phe-Met-Pro-Leu-Trp-O-3′,5′-Bn(CF3)2 [compound 7]		enhanced antinociception in acute pain models and prevention of opioid-induced tolerance in chronic trials	potently attenuate neuropathic pain without producing opioid-induced tolerance
CC(=O)N[C@H]1Cc2ccccc2CN(CC(=O)NCc2cc(C(F)(F)F)cc(C(F)(F)F)c2)C1=O [compound 19, Ac-(S)-Aba-Gly-NH-3′,5′-(CF3)2-Bn]	able to counteract the effect of SP; also recorded: moderate		
